Tests used:
[1] = target: T1, mouse odorant receptors (ORs) (Mus musculus, UniProt Q8VGS3); assay: CRE-luciferase assay of odorant receptor activation (Dual-Glo, Hana3A cells, RTP1S), dose-response EC50; format: cell-based; conditions: receptor MOR180-1; read-out: log EC50 of odorant at MOR180-1 (0 = no response) (converted)
T1 construct: OR open reading frames were amplified from genomic DNA; expressed in transfected cells; host or cells: Hana3A cells, co-transfected with RTP1S, CRE-luciferase and pRL-SV40
T1 sequence (Q8VGS3 1-310): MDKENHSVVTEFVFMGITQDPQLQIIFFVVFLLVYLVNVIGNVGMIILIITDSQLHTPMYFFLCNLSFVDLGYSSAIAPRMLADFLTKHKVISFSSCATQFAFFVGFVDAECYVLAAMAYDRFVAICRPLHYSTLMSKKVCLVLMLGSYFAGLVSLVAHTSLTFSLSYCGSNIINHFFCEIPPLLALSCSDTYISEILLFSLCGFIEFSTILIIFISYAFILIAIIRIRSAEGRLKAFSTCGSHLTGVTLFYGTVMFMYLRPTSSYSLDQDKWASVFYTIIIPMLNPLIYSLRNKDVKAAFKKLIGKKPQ

[2] = target: T2, mouse odorant receptors (ORs) (Mus musculus, UniProt Q9JHB2); assay: as above; format: cell-based; conditions: receptor MOR140-1
T2 construct: OR open reading frames were amplified from genomic DNA; expressed in transfected cells; host or cells: Hana3A cells, co-transfected with RTP1S, CRE-luciferase and pRL-SV40
T2 sequence (Q9JHB2 1-309): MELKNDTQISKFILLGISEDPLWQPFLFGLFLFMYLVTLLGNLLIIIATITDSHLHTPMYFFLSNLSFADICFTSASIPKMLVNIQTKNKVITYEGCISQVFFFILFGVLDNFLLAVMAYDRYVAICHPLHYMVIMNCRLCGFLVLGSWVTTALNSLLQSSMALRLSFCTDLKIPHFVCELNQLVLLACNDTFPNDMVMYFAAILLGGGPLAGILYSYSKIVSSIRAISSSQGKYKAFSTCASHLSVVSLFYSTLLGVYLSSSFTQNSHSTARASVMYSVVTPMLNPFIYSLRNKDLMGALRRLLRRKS

Row | SMILES | EC50 [1] [µM] | log EC50 (Table 4 value), MOR140-1 [2]
1 | CC(=O)Oc1ccccc1 [Phenyl acetate] | 661 | 
2 | CCCCCC1=C(C)CCC1=O [Dihydroiasmone] |  | −3.614

Reference: US20100248390A1, “COMPOSITIONS AND METHODS FOR IDENTIFYING LIGANDS OF ODORANT RECEPTORS” (DUKE UNIVERSITY, priority 2009, published 2010)
